Patent US5789432A, “Aromatase-inhibiting composition containing azole derivative” (Kureha Kagaku Kogyo Kabushiki Kaisha, priority 1993, dated 1998)

These compounds were tested against T1, Aromatase (Homo sapiens, UniProt P11511) (assay: Aromatase-inhibiting activity (radiometric, H^14COOH release; method of Covey et al.)). Conditions: not given.
T1 construct: Microsomes of human placenta; from tissue; host or cells: human placenta, microsomes
T1 sequence (P11511 1-503): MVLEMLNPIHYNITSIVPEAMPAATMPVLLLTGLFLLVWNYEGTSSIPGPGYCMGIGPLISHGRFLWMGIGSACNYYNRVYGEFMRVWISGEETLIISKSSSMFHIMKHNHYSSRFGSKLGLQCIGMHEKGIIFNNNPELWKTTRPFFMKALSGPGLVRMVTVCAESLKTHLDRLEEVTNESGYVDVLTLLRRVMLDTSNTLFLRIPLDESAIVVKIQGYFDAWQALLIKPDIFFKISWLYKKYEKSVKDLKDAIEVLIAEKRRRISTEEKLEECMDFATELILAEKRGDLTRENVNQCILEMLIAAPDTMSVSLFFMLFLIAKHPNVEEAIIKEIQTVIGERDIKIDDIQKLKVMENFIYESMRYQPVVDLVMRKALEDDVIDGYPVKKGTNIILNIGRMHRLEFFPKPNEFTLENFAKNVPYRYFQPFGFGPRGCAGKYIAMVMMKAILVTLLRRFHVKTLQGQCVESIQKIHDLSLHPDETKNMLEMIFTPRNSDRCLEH
Assay type: biochemical
Protocol: The aromatase-inhibiting activity was measured basically according to the method described in D. F. Covey et al: BBRC […], 81-86, 1988. The aromatase-inhibiting activity of the azole derivatives used in the present invention was evaluated in terms of 50% aromatase activity-inhibiting concentration (IC50) of the derivatives.
The aromatase-inhibiting activity of each compound was measured according to the method of Covey et al: BBRC, 157 (1), 81-86, 1988. Radioactivity of a by-product H^14 COOH released from a ^14 C-labeled substrate by the action of aromatase was measured to radiometrically determine aromatase-inhibiting activity of the compounds. The aromatase-inhibiting activity of the test compound is shown by 50% aromatase activity-inhibiting concentration (IC50) of the compound.
An aromatase reaction system of the composition shown below in 67 mM phosphate buffer solution (0.5 ml) was incubated at 37° C. for 30 minutes with shaking. Chloroform (5 ml) was added to the reaction solution to stop the reaction. The reaction solution was vigorously stirred and then centrifuged to recover the by-product (H^14 COOH) of the aromatase reaction in the aqueous layer. The aqueous layer (0.1 ml) was collected and mixed with a liquid scintillation cocktail (4 ml) to measure its radioactivity.
(1) Aromatase: Microsomes of human placenta (0.1 mg/ml, protein concentration).
(2) Substrate: [19-^14 C] 4-Androstene-3,17-dione (1×10^-6 M; 2 kBq/ml).
(3) Coenzymes: Nicotinamide adenine dinucleotide phosphate, reduced form (2×10^-3 M), glucose-6-phosphate (4×10^-3 M) and glucose-6-phosphate dehydrogenase (4 U/ml).
Radioactivity of the reaction system exclusive of (1) was supposed to be background radioactivity as 100% control of aromatase inhibition. Radioactivity of the reaction system exclusive of (4) was supposed to be that of negative control as 0% of aromatase inhibition. […] 4-Hyroxyandrostenedione was used as a reference compound.
The aromatase inhibiting activities (IC50) of the optical isomers (I-3 (-) and I-3 (+)) were determined in the same way as in Example 6.

With `O[C@@]1(Cc2ccc(-c3ccccc3)cc2)CCC[C@H]1Cn1cncn1` (relative stereo) [Compound I-9, 1-(p-Biphenylmethyl)-c-2-(1H-1,2,4-triazol-1-ylmethyl)cyclopentan-r-1-ol] as the compound, how does the IC50 read?
The IC50 was 13 nM.

How did the IC50 turn out when `CC1(C)CC[C@@H]2Cc3ccc(Cl)cc3O[C@]21Cn1cncn1` [Compound I-14, (3aR,9aR)-6-chloro-2,3,9,9a-tetrahydro-3,3-dimethyl-3a(1H)-(1H-1,2,4-triazol-1-ylmethyl)cyclopenta[b][1]benzopyran] was run?
Its IC50 is 12 nM.

How did the IC50 turn out when `O[C@@]1(Cc2ccc(Cl)cc2Cl)CCC[C@H]1Cn1cncn1` (relative stereo) [Compound I-7, 1-(2,4-Dichlorobenzyl)-c-2-(1H-1,2,4-triazol-1-ylmethyl)cyclopentan-r-1-ol] was run?
The IC50 was 10 nM.

How did the IC50 turn out when `Fc1cccc2c1C[C@H]1CCC[C@@]1(Cn1cncn1)O2` [Compound I-18, (3aR,9aR)-8-Fluoro-2,3,9,9a-tetrahydro-3a(1H)-(1H-1,2,4-triazol-1-ylmethyl)cyclopenta[b][1]benzopyran] was run?
Its IC50 is 13 nM.

For `O[C@@]1(c2ccc(Cl)cc2)CCC[C@H]1Cn1cncn1` (relative stereo) [Compound I-12, 1-(4-Chlorophenyl)-c-2-(1H-1,2,4-triazol-1-ylmethyl)cyclopentan-r-1-ol], which IC50 is on record?
The IC50 was 10 nM.

`CC(C)[C@@](O)(CCn1ccnc1)Cc1ccc(Cl)cc1` [Compound I-2, (3S)-3-(4-chlorobenzyl)-1-(1H-imidazol-1-yl)-4-methylpentan-3-ol] was tested. Which IC50 did it give?
The IC50 was 10 nM.

Which IC50 does the source give for `O[C@@]1(Cc2ccc(F)cc2F)CCC[C@H]1Cn1cncn1` (relative stereo) [Compound I-8, 1-(2,4-Difluorobenzyl)-c-2-(1H-1,2,4-triazol-1-ylmethyl)cyclopentan-r-1-ol] here?
The IC50 was 12 nM.

For `O[C@@]1(Cc2ccc(Cl)cc2)CCC[C@H]1Cn1ccnc1` (stereo in doubt) [Compound I-3, 1-(4-chlorobenzyl)-c-2-(1H-imidazol-1-ylmethyl)cyclopentan-r-1-ol], which IC50 is on record?
Its IC50 is 40 nM.

Which IC50 does the source give for `O[C@@]1(Cc2ccc(Cl)cc2)CCC[C@H]1Cn1cncn1` (relative stereo) [Compound I-6, 1-(4-Chlorobenzyl)-c-2-(1H-1,2,4-triazol-1-ylmethyl)cyclopentan-r-1-ol] here?
The IC50 was 40 nM.

For `CC1(C)C[C@@H](Cc2ccc(Cl)cc2)[C@](O)(Cn2cncn2)C1` (relative stereo) [Compound I-20, c-2-(4-Chlorobenzyl)-4,4-dimethyl-1-(1H-1,2,4-triazol-1-ylmethyl)cyclopentan-r-1-ol], which IC50 is on record?
The IC50 was 40 nM.

How did the IC50 turn out when `C[C@]12CCC(=O)C(O)=C1CC[C@@H]1[C@@H]2CC[C@]2(C)C(=O)CC[C@@H]12` [Reference, 4-Hyroxyandrostenedione, reference compound] was run?
The IC50 was 20 nM.

Which IC50 does the source give for `CC1(C)C[C@@H](Cc2ccc(Cl)cc2)[C@](O)(Cn2ccnc2)C1` (relative stereo) [Compound I-19, c-2-(4-Chlorobenzyl)-1-(1H-imidazol-1-ylmethyl)-4,4-dimethylcyclopentan-r-1-ol] here?
The IC50 was 65 nM.

How did the IC50 turn out when `Clc1ccc2c(c1)O[C@]1(Cn3cncn3)CCC[C@@H]1C2` [Compound I-17, (3aR,9aR)-6-Chloro-2,3,9,9a-tetrahydro-3a(1H)-(1H-1,2,4-triazol-1-ylmethyl)cyclopenta[b][1]benzopyran] was run?
Its IC50 is 30 nM.

How did the IC50 turn out when `O[C@@]1(Cc2ccc(Cl)cc2)CCC[C@@H]1Cn1ccnc1` (relative stereo) [Compound I-4, 1-(4-chlorobenzyl)-t-2-(1H-imidazol-1-ylmethyl)cyclopentan-r-1-ol] was run?
The IC50 was 20 nM.

Same assay, conditions: Table 1; microsomes of human placenta, [19-14C] 4-androstene-3,17-dione 1×10^-6 M, 37° C., 30 minutes; read-out: IC50 (50% aromatase activity-inhibiting concentration)

How did the IC50 turn out when `O[C@@]1(c2ccccc2)CCC[C@H]1Cn1ccnc1` (relative stereo) [Compound I-11, 1-(Phenyl)-c-2-(1H-imidazol-1-ylmethyl)cyclopentan-r-1-ol] was run?
The IC50 was 35 nM.

For `CC1(C)CC[C@@H]2Cc3ccc(Cl)cc3O[C@]21Cn1ccnc1` [Compound I-15, (3aR,9aR)-6-Chloro-2,3,9,9a-tetrahydro-3a(1H)-(1H-imidazol-1-ylmethyl)-3,3-dimethylcyclopenta[b][1]benzopyran], which IC50 is on record?
Its IC50 is 45 nM.

For `CC(C)[C@](O)(CCn1ccnc1)c1ccc(Cl)cc1` [Compound I-1, (3R)-3-(4-chlorophenyl)-1-(1H-imidazol-1-yl)-4-methylpentan-3-ol], which IC50 is on record?
The IC50 was 10 nM.

`O[C@@]1(c2ccc(Cl)cc2)CCC[C@H]1Cn1ccnc1` (relative stereo) [Compound I-10, 1--(4-Chlorophenyl)-c-2-(1H-imidazol-1-ylmethyl)cyclopentan-r-1-ol] was tested. Which IC50 did it give?
Its IC50 is 30 nM.

With `O[C@@]1(Cc2ccccc2)CCC[C@@H]1Cn1ccnc1` (relative stereo) [Compound I-5, 1-(Benzyl)-t-2-(1H-imidazol-1-ylmethyl)cyclopentan-r-1-ol] as the compound, how does the IC50 read?
Its IC50 is 50 nM.

For `Clc1ccc2c(c1)O[C@]1(Cn3ccnc3)CCC[C@@H]1C2` [Compound I-16, (3aR,9aR)-6-Chloro-2,3,9,9a-tetrahydro-3a(1H)-(1H-imidazol-1-ylmethyl)cyclopenta[b][1]benzopyran], which IC50 is on record?
The IC50 was 30 nM.

Same assay, conditions: read-out: IC50 (50% aromatase activity-inhibiting concentration); Table 1; microsomes of human placenta, [19-14C] 4-androstene-3,17-dione 1×10^-6 M, 37° C., 30 minutes

Which IC50 does the source give for `O[C@@]1(Cc2ccc(Cl)cc2)CCC[C@H]1Cn1ccnc1` (stereo in doubt) [Compound I-13, nitrate of 1-(4-chlorobenzyl)-c-2-(1H-imidazol-1-ylmethyl)-cyclopentan-r-1-ol] here?
Its IC50 is 55 nM.

Same assay, conditions: read-out: IC50 of optical isomers; Example 7; same way as in Example 6

How did the IC50 turn out when `O[C@]1(Cc2ccc(Cl)cc2)CCC[C@@H]1Cn1ccnc1` (stereo in doubt) [I-3 (-), 1-(4-chlorobenzyl)-c-2-(1H-imidazol-1-ylmethyl)cyclopentan-r-1-ol] was run?
The IC50 was 4 nM.

How did the IC50 turn out when `O[C@]1(Cc2ccc(Cl)cc2)CCC[C@@H]1Cn1ccnc1` (stereo in doubt) [I-3 (+), 1-(4-chlorobenzyl)-c-2-(1H-imidazol-1-ylmethyl)cyclopentan-r-1-ol] was run?
Its IC50 is 80 nM.
